The results in this text go back to ChEMBL document CHEMBL4004889, “Discovery of selective ATP-competitive eIF4A3 inhibitors” (Bioorg Med Chem, 2017).

As usually defined, the Ki is the dissociation constant of the complex between target and ligand, obtained from inhibition or displacement. As usually defined, the Kd is a measure of binding affinity in units of concentration. As a reminder, the IC50 is the point on the concentration scale where inhibition reaches its midpoint.

Assay [1] has as its target T1, Eukaryotic initiation factor 4A-III (Homo sapiens, UniProt P38919). The experiment in a line: ATP competitive inhibition of MLN51-induced full length recombinant human N-terminal His6/SUMO-tagged eIF4A3 expressed in Escherichia coli BL21(DE3) using varying ATP levels after 30 mins by ADP-Glo luminescence assay. For orientation: In ADP-Glo the light output rises with the ADP produced.

The target of assay [2] is T1, Eukaryotic initiation factor 4A-III. The assay is described as follows: Binding affinity to full length recombinant human N-terminal His6/SUMO-tagged eIF4A3 expressed in Escherichia coli BL21(DE3) administered for 60 to 120 secs by surface plasmon resonance biosensing assay. Background: Surface plasmon resonance follows binding to a sensor surface in real time, without labels.

The target of assay [3] is Eukaryotic initiation factor 4A-I (Homo sapiens, UniProt P60842). The assay is described as follows: Inhibition of eIF4G-induced full length recombinant human N-terminal His6/SUMO-tagged eIF4A1 RNA dependent ATPase activity expressed in Escherichia coli BL21(DE3) using single stranded poly(U) RNA as substrate after 40 mins by ADP-Glo luminescence assay.
Sequence of Eukaryotic initiation factor 4A-I (P60842 whole entry): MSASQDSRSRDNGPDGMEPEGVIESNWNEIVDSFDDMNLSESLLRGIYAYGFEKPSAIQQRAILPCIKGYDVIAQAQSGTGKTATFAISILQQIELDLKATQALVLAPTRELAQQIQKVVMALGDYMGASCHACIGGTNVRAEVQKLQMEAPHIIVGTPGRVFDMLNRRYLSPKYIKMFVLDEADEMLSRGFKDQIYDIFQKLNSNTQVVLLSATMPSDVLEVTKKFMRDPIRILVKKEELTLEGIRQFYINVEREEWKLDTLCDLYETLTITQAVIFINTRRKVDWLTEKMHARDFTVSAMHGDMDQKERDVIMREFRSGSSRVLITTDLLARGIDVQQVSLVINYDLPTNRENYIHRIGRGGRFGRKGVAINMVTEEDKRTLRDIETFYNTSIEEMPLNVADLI
Assay [4] concerns the target T1, Eukaryotic initiation factor 4A-III. The experiment in a line: Inhibition of MLN51-induced full length recombinant human N-terminal His6/SUMO-tagged eIF4A3 RNA dependent ATPase activity expressed in Escherichia coli BL21(DE3) using 60 ug/ml single stranded poly(U) RNA as substrate after 30 mins by ADP-Glo luminescence assay.
Assay [5] shares this target. The experiment in a line: Binding affinity to full length recombinant human N-terminal His6/SUMO-tagged eIF4A3 expressed in Escherichia coli BL21(DE3) by isothermal titration calorimetric method. (In general: In ITC the heat of successive injections is recorded.)
Assay [6] shares this target.
Description: Binding affinity to full length recombinant human N-terminal His6/SUMO-tagged eIF4A3 expressed in Escherichia coli BL21(DE3) assessed as change in enthalpy by isothermal titration calorimetric method
Assay [7] addresses Eukaryotic initiation factor 4A-II (Homo sapiens, UniProt Q14240). The experiment in a line: Inhibition of eIF4G-induced eIF4A2 (unknown origin) RNA dependent ATPase activity expressed in Escherichia coli BL21(DE3) using single stranded poly(U) RNA as substrate after 40 mins by ADP-Glo luminescence assay.
Assay [8] concerns the target U5 small nuclear ribonucleoprotein 200 kDa helicase (Homo sapiens, UniProt O75643). The experiment in a line: Inhibition of full length recombinant human N-terminal His-tagged BRR2 RNA dependent ATPase activity expressed in baculovirus infected Sf9 insect cells using single stranded poly(U) RNA as substrate after 30 mins by ADP-Glo luminescence assay.
The target in assay [9] is T1, Eukaryotic initiation factor 4A-III. This is another data set of the same source.
Description: Binding affinity to full length recombinant human N-terminal His6/SUMO-tagged eIF4A3 expressed in Escherichia coli BL21(DE3) assessed as change in entropy by isothermal titration calorimetric method
Assay [10] shares this target. The source holds these as a separate data set.
Description: Binding affinity to full length recombinant human N-terminal His6/SUMO-tagged eIF4A3 expressed in Escherichia coli BL21(DE3) assessed as change in Gibbs free energy by isothermal titration calorimetric method
Assay [11] has the same target. The experiment in a line: Inhibition of MLN51-induced full length recombinant human N-terminal His6/SUMO-tagged eIF4A3 expressed in Escherichia coli BL21(DE3) using 1.5 ug/ml single stranded poly(U) RNA after 45 mins by ADP-Glo luminescence assay.
The target is the same in assay [12]. This is another data set of the same source.
Description: Binding affinity to full length recombinant human N-terminal His6/SUMO-tagged eIF4A3 expressed in Escherichia coli BL21(DE3) assessed as dissociation half-life administered for 60 to 120 secs by surface plasmon resonance biosensing assay
In assay [13] the target is T2, ATP-dependent RNA helicase DHX29 (Homo sapiens, UniProt Q7Z478).
T2 sequence (Q7Z478 whole entry): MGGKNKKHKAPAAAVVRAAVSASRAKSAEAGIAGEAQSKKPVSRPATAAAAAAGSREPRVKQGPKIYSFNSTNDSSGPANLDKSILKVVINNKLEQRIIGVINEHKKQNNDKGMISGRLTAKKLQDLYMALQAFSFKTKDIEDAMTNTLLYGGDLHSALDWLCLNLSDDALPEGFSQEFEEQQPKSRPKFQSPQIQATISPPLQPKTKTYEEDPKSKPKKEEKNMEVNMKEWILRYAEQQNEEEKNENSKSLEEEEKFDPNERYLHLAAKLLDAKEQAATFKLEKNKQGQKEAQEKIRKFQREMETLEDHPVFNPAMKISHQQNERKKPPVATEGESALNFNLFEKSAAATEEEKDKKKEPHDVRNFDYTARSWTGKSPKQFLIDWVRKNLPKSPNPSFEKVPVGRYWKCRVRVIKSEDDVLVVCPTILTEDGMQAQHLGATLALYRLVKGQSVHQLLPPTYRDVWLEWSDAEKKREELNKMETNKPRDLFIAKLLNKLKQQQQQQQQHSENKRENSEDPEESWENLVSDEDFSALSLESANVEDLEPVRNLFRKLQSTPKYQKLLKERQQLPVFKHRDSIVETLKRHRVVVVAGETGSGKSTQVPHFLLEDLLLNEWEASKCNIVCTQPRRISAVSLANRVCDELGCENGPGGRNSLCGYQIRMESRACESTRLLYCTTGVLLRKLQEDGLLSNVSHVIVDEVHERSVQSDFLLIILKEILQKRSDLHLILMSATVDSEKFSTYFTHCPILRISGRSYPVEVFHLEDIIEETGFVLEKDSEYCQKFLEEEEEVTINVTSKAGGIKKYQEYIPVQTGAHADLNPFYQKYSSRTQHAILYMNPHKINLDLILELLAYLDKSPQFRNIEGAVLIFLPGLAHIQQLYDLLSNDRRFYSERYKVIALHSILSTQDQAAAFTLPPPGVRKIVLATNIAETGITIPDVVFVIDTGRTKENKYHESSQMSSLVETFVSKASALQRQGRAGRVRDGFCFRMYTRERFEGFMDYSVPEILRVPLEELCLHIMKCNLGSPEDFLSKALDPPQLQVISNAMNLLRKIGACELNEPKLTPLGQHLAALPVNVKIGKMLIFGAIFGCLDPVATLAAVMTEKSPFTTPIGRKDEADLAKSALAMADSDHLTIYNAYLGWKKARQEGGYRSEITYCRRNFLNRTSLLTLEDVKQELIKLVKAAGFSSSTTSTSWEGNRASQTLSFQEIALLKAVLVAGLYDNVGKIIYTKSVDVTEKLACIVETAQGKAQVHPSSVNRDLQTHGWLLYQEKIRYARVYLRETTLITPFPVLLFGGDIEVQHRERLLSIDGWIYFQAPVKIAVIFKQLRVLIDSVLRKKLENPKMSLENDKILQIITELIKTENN
The experiment in a line: Inhibition of full length recombinant human N-terminal FLAG-His-tagged DHX29 RNA dependent ATPase activity expressed in baculovirus infected Sf9 insect cells using single stranded poly(U) RNA as substrate after 30 mins by ADP-Glo luminescence assay.

T1 sequence (P38919 whole entry): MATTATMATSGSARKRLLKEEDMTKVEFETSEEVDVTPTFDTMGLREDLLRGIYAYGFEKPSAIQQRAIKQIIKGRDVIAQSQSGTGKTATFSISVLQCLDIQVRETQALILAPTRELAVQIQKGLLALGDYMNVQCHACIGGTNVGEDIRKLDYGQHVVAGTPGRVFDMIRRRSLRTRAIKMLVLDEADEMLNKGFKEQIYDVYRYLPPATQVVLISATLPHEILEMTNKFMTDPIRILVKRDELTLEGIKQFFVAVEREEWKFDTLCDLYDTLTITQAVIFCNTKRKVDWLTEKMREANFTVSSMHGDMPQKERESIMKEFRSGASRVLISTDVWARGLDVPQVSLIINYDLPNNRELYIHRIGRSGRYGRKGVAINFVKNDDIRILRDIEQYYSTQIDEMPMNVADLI
Sequence of U5 small nuclear ribonucleoprotein 200 kDa helicase (O75643 whole entry): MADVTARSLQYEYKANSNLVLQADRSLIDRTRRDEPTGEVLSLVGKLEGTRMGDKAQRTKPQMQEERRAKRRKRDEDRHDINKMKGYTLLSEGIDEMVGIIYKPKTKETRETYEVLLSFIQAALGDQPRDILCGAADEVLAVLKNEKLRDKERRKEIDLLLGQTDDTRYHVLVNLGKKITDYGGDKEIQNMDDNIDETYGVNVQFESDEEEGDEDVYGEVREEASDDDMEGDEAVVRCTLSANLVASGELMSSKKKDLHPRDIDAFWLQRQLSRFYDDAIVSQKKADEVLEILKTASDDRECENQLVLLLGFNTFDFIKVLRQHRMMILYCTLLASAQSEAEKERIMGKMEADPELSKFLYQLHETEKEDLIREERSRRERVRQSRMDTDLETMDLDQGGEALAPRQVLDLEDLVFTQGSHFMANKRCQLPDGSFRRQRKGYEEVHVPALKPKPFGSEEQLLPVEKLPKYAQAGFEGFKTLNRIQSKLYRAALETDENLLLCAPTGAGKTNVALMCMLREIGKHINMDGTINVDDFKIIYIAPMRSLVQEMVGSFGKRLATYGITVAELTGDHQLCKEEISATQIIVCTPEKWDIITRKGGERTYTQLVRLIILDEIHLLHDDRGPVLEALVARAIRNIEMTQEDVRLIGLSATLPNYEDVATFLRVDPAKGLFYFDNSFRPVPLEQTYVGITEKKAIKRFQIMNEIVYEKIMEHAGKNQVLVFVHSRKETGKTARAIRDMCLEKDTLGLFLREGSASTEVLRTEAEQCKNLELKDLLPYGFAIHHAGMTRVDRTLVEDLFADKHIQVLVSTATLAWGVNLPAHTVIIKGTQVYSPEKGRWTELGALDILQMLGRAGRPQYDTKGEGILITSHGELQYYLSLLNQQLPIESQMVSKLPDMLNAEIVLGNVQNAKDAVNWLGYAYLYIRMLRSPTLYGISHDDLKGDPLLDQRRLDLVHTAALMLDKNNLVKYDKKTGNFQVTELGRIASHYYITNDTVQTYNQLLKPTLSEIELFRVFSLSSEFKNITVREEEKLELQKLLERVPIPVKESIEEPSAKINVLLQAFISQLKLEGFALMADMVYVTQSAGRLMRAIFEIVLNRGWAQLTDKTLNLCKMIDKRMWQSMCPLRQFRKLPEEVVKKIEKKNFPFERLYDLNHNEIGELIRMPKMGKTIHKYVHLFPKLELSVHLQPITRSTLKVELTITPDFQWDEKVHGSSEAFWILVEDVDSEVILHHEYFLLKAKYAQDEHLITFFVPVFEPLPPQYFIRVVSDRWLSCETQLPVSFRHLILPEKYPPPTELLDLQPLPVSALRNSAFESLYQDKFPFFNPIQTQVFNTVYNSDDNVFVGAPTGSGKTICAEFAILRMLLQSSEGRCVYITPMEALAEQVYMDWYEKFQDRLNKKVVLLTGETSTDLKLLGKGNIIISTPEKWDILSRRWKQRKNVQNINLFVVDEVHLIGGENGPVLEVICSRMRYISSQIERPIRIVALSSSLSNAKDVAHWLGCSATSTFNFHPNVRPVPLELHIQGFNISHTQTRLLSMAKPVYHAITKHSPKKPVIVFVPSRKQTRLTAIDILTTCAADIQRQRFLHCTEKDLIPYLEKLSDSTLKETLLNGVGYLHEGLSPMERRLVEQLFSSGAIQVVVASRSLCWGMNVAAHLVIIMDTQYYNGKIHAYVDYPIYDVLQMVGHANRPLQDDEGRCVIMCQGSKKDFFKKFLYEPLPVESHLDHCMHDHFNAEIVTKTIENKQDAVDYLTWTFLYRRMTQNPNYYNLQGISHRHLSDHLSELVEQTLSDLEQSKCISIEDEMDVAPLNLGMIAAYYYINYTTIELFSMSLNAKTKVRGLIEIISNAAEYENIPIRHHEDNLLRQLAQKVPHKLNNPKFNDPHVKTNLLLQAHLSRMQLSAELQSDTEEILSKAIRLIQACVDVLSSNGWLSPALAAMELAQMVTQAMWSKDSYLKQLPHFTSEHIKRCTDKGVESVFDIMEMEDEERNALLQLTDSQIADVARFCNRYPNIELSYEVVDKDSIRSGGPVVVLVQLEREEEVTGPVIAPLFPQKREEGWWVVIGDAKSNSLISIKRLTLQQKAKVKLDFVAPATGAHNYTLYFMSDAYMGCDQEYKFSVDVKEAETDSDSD
Sequence of Eukaryotic initiation factor 4A-II (Q14240 whole entry): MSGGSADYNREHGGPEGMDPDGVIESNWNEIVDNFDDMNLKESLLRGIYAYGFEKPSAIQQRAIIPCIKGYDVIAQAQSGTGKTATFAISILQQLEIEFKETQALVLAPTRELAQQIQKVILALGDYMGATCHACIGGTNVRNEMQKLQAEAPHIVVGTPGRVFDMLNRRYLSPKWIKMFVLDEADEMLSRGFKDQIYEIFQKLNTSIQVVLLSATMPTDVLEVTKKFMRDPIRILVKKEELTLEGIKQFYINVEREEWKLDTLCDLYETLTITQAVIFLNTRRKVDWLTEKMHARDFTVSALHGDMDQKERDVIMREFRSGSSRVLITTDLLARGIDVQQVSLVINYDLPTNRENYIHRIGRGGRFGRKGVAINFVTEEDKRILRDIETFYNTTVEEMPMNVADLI

As for `CC(C)c1cc(Cl)c2cc(C(=O)O)[nH]c2c1F`, the Ki in [1] was found to be 0.43 µM. In addition, the Kd was 0.2 µM in [2] and 0.062 µM in assay [5]. In addition, the IC50 was > 100 µM in assay [3]; 0.97 µM in [4]; > 100 µM in assay [7]; > 100 µM in assay [8]; 0.36 µM in [11]; > 100 µM in assay [13]. For the same compound, in assay [6], the deltaH is -26 kcal/mol. The -TdeltaS in assay [9] came out at 16.1 kcal/mol. The deltaG in assay [10] is -9.9 kcal/mol. Besides, the T1/2 in [12] worked out at 8.9 s.

In the case of `CC(C)c1cc(Cl)c2cc(C(=O)O)[nH]c2c1`, the figures for the IC50 in [3] and in assay [4] were > 100 µM and 1.9 µM, respectively.

As for `COC(=O)c1cc2ccc(C(C)C)cc2[nH]1`, the IC50 in [4] is > 100 µM.

As for `Cc1ccc2cc(C(=O)O)[nH]c2c1`, the IC50 in assay [4] is > 100 µM.

For `CC(C)c1ccc2cc(C(=O)O)[nH]c2c1F`, the IC50 in [3] is > 100 µM; in assay [4] it was 6.9 µM.

Consider `CC(C)c1ccc2cc(-c3nnn[nH]3)[nH]c2c1`, for which the IC50 in assay [4] stood at 30 µM.

`CC(C)c1cccc2cc(C(=O)O)[nH]c12`: in assay [4], the 50% inhibitory concentration (IC50) was > 100 µM.

Turning to `CC(C)c1ccc2c(F)c(C(=O)O)[nH]c2c1`, the IC50 in [4] turned out to be 20 µM.

Turning to `CC(C)c1ccc2cc(C(=O)O)[nH]c2c1Cl`, the half-inhibitory concentration (IC50) in assay [4] was > 100 µM.

Consider `CC(C)c1ccc2cc(C(N)=O)[nH]c2c1`, for which the half-maximal inhibitory concentration (IC50) in [4] was > 100 µM.

`CC(C)c1ccc2cc(C(=O)O)[nH]c2c1`: the Kd in assay [2] came to 5.4 µM. Further, the IC50 in assay [4] was 27 µM.

On to `CC(C)c1cc2[nH]c(C(=O)O)cc2cc1F`, for which the IC50 in [4] worked out at 30 µM.

For the compound `C[C@H]1C[C@@]2(O[C@H]3C[C@H]4[C@@H]5CC[C@H]6C[C@H](O)CC[C@]6(C)[C@H]5[C@@H](O)C[C@]4(C)[C@H]3[C@@]2(C)O)OC1(C)C` [HIPPURISTANOL], the Kd in [2] is 50 µM. The 50% inhibitory concentration (IC50) in assay [3] is 3.1 µM; in [4], 40 µM; in [7], 18 µM; in assay [8], > 30 µM; in [13], > 30 µM. The T1/2 in [12] turned out to be 12.2 s.

As to `CC(C)c1ccc2cc(C(=O)O)n(C)c2c1`, in assay [4], the concentration for half-maximal inhibition (IC50) was > 100 µM.

As to `O=C(O)c1cc2ccc(Cl)cc2[nH]1`, the IC50 in [4] was > 100 µM.

Regarding `CC(C)c1ccc2[nH]c(C(=O)O)cc2c1`, the IC50 in [4] is > 100 µM.

`CC(C)c1cc(F)c2cc(C(=O)O)[nH]c2c1`: the IC50 in [4] was found to be 5 µM.

As to `CCc1ccc2cc(C(=O)O)[nH]c2c1`, the IC50 in [4] is > 100 µM.
